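Where inhibition never reached the appropriate level, the endpoint shown equals the highest concentration tested. Otherwise, values were interpolated linearly from a five-concentration, 48-hour dose response in 96-well plates. GI50: concentration for 50% inhibition of growth. TGI is the concentration that stops growth completely.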
Tests used:
Experiment in all cases: DTP human tumour cell line panel, 48 h
[1] = system: SW-620 colon
[2] = system: SK-MEL-28 melanoma
[3] = system: A549 NSCLC
[4] = system: CCRF-CEM leukemia
[5] = system: RPMI-8226 leukemia
[6] = system: ACHN renal
[7] = system: SF-268 CNS
[8] = system: MCF7 breast
[9] = system: HL-60(TB) leukemia
[10] = system: MOLT-4 leukemia
[11] = system: HS 578T breast
[12] = system: IGROV1 ovarian
[13] = system: NCI-H460 lung
[14] = system: CAKI-1 renal
[15] = system: SK-MEL-2 melanoma
[16] = system: SN12C renal
[17] = system: UACC-62 melanoma
[18] = system: SF-295 CNS
[19] = system: DU-145 prostate
[20] = system: BT-549 breast
[21] = system: UACC-257 melanoma
[22] = system: SK-OV-3 ovarian
[23] = system: SNB-19 CNS
[24] = system: HOP-62 NSCLC
[25] = system: SR leukemia
[26] = system: EKVX NSCLC
[27] = system: SK-MEL-5 melanoma
[28] = system: RXF 393 renal
[29] = system: T-47D breast
[30] = system: PC-3 prostate
[31] = system: OVCAR-3 ovarian
[32] = system: MDA-MB-231 breast
[33] = system: NCI-H23 lung
[34] = system: UO-31 renal
[35] = system: LOX IMVI melanoma
[36] = system: SNB-75 CNS
[37] = system: 786-0 renal
[38] = system: U251 CNS
[39] = system: NCI-H226 lung
[40] = system: OVCAR-4 ovarian
[41] = system: A498 renal
[42] = system: COLO 205 colon
[43] = system: MALME-3M melanoma
[44] = system: NCI/ADR-RES ovarian
[45] = system: HOP-92 NSCLC
[46] = system: OVCAR-5 ovarian
[47] = system: SF-539 CNS
[48] = system: NCI-H522 lung
[49] = system: HT29 colon
[50] = system: KM12 colon
[51] = system: HCT-116 colon
[52] = system: HCC-2998 colon
[53] = system: M14 melanoma
[54] = system: OVCAR-8 ovarian
[55] = system: HCT-15 colon
[56] = system: TK-10 renal

Compound: COc1ccccc1/C=C/C=N/NC1=NC2C(S1)N(C)C(=O)N2C (configuration not stated)
- GI50 [1]: 4.07 µM
- TGI [1]: > 100 µM
- GI50 [2]: 8.86 µM
- TGI [2]: > 100 µM
- GI50 [3]: 7.31 µM
- TGI [3]: > 100 µM
- GI50 [4]: 4.42 µM
- TGI [4]: > 100 µM
- GI50 [5]: 4.8 µM
- TGI [5]: > 100 µM
- GI50 [6]: 5.67 µM
- TGI [6]: 93.9 µM
- GI50 [7]: 6.78 µM
- TGI [7]: 38.5 µM
- GI50 [8]: 2.91 µM
- TGI [8]: > 100 µM
- GI50 [9]: 0.545 µM
- TGI [9]: 4.37 µM
- GI50 [10]: 4.54 µM
- TGI [10]: > 100 µM
- GI50 [11]: 3.82 µM
- TGI [11]: > 100 µM
- GI50 [12]: 8.3 µM
- TGI [12]: > 100 µM
- GI50 [13]: 3.95 µM
- TGI [13]: > 100 µM
- GI50 [14]: 4.11 µM
- TGI [14]: > 100 µM
- GI50 [15]: 3.02 µM
- TGI [15]: 15.1 µM
- GI50 [16]: 4.4 µM
- TGI [16]: 30.7 µM
- GI50 [17]: 2.99 µM
- TGI [17]: 34.1 µM
- GI50 [18]: 3.68 µM
- TGI [18]: 38.2 µM
- GI50 [19]: 5.74 µM
- TGI [19]: > 100 µM
- GI50 [20]: 2.94 µM
- TGI [20]: 12.9 µM
- GI50 [21]: 8.11 µM
- TGI [21]: > 100 µM
- GI50 [22]: 6.93 µM
- TGI [22]: 66.4 µM
- GI50 [23]: 6.28 µM
- TGI [23]: > 100 µM
- GI50 [24]: 7.76 µM
- TGI [24]: > 100 µM
- GI50 [25]: 2.74 µM
- TGI [25]: 30.4 µM
- GI50 [26]: 9.85 µM
- TGI [26]: > 100 µM
- GI50 [27]: 3.61 µM
- TGI [27]: 13.8 µM
- GI50 [28]: 2.43 µM
- TGI [28]: 17 µM
- GI50 [29]: 5.6 µM
- TGI [29]: > 100 µM
- GI50 [30]: 5.28 µM
- TGI [30]: > 100 µM
- GI50 [31]: 2.5 µM
- TGI [31]: 6.6 µM
- GI50 [32]: 9.27 µM
- TGI [32]: 75.8 µM
- GI50 [33]: 7.62 µM
- TGI [33]: > 100 µM
- GI50 [34]: 4.03 µM
- TGI [34]: 43.6 µM
- GI50 [35]: 4.94 µM
- TGI [35]: 21.2 µM
- GI50 [36]: 2.82 µM
- TGI [36]: 49.3 µM
- GI50 [37]: 5.77 µM
- TGI [37]: 70.3 µM
- GI50 [38]: 5.02 µM
- TGI [38]: > 100 µM
- GI50 [39]: 3.53 µM
- TGI [39]: 90.2 µM
- GI50 [40]: 9.21 µM
- TGI [40]: > 100 µM
- GI50 [41]: 11.1 µM
- TGI [41]: 94.6 µM
- GI50 [42]: 4.8 µM
- TGI [42]: 20.3 µM
- GI50 [43]: 4.73 µM
- TGI [43]: 77.7 µM
- GI50 [44]: 4.19 µM
- TGI [44]: > 100 µM
- GI50 [45]: 3.39 µM
- TGI [45]: 32.3 µM
- GI50 [46]: 5.55 µM
- TGI [46]: > 100 µM
- GI50 [47]: 2.59 µM
- TGI [47]: 8.6 µM
- GI50 [48]: 1.68 µM
- TGI [48]: 4.54 µM
- GI50 [49]: 3.33 µM
- TGI [49]: 13.2 µM
- GI50 [50]: 3.92 µM
- TGI [50]: 17.7 µM
- GI50 [51]: 4.36 µM
- TGI [51]: 90.8 µM
- GI50 [52]: 10.5 µM
- TGI [52]: 33.2 µM
- GI50 [53]: 3.9 µM
- TGI [53]: 43 µM
- GI50 [54]: 5.47 µM
- TGI [54]: 51.9 µM
- GI50 [55]: 3.96 µM
- TGI [55]: > 100 µM
- GI50 [56]: 14.3 µM
- TGI [56]: 72.5 µM

Reference: PubChem BioAssay (NCI)
